pIC50: −log10 of the molar value.
Target: TRKA (Homo sapiens (Human), UniProt P04629)
Assay: Isolated TRK enzyme assay (HTRF KinEASE-TK), TRKA
Assay type: biochemical
Settings: read-out: Trka enzyme (IC50)

Sequence of TRKA (P04629 441-796): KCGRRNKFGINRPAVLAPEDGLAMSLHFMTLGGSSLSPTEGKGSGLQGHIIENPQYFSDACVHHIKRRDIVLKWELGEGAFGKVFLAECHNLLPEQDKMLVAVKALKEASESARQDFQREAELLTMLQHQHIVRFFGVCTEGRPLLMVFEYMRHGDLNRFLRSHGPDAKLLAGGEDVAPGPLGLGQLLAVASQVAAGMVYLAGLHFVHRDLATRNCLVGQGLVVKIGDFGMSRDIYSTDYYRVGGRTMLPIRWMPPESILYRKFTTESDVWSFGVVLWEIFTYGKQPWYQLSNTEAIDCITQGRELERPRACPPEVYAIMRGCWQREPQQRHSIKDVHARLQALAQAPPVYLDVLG

| SMILES | pIC50 |
| --- | --- |
| CC(C)n1cc(C(=O)c2cncc(NC(=O)C(CO)c3ccccc3)c2)c2cncnc21 (stereo not drawn) [Example 339, 3-hydroxy-2-phenyl-N-(5-{[7-(propan-2-yl)-7H-pyrrolo[2,3-d]pyrimidin-5-yl]carbonyl}pyridin-3-yl)propanamide] | 6.60 |
| COc1ccc2c(ccn2CC(=O)Nc2cncc(C(=O)c3cn(C(C)C)c4ncncc34)c2)c1 [Example 340, N-{5-[(7-isopropyl-7H-pyrrolo[2,3-d]pyrimidin-5-yl)carbonyl]-pyridin-3-yl}-2-(5-methoxy-1H-indol-1-yl)acetamide] | 6.35 |
| CC(C)n1cc(C(=O)c2cncc(NC(=O)COc3ccc(OC(F)(F)F)cc3)c2)c2cncnc21 [Example 348, N-(5-{[7-(propan-2-yl)-7H-pyrrolo[2,3-d]pyrimidin-5-yl]carbonyl}pyridin-3-yl)-2-[4-(trifluoromethoxy)phenoxy]acetamide] | 7.44 |
| CC(C)n1cc(C(=O)c2cncc(NC(=O)C(N)c3ccc(Cl)cc3)c2)c2cncnc21 (stereo not drawn) [Example 350, 2-amino-2-(4-chlorophenyl)-N-(5-(7-isopropyl-7H-pyrrolo[2,3-d]pyrimidine-5-carbonyl)pyridin-3-yl)acetamide] | 6.82 |
| CC(C)n1cc(C(=O)c2cncc(NC(=O)Cc3cn(C4CC4)nc3C(F)(F)F)c2)c2cncnc21 [Example 352, 2-(1-Cyclopropyl-3-trifluoromethyl-1H-pyrazol-4-yl)-N-[5-(7-isopropyl-7H-pyrrolo[2,3-d]pyrimidine-5-carbonyl)-pyridin-3-yl]-acetamide] | 7.20 |
| CC(C)n1cc(C(=O)c2cncc(NC(=O)Cn3cnc(Cl)c3Cl)c2)c2cncnc21 [Example 355, 2-(4,5-Dichloro-imidazol-1-yl)-N-[5-(7-isopropyl-7H-pyrrolo[2,3-d]pyrimidine-5-carbonyl)-pyridin-3-yl]-acetamide] | 6.52 |
| Cc1cc(C(F)F)n2nc(C(=O)Nc3cncc(C(=O)c4cn(C(C)C)c5ncncc45)c3)nc2n1 [Example 356, 7-Difluoromethyl-5-methyl-[1,2,4]triazolo[1,5-a]pyrimidine-2-carboxylic acid [5-(7-isopropyl-7H-pyrrolo[2,3-d]pyrimidine-5-carbonyl)-pyridin-3-yl]-amide] | 7.25 |
| Cc1nc(C)n(CC(=O)Nc2cncc(C(=O)c3cn(C(C)C)c4ncncc34)c2)n1 [Example 358, 2-(3,5-Dimethyl-1,2,4-triazol-1-yl)-N-[5-(7-isopropyl-7H-pyrrolo[2,3-d]pyrimidine-5-carbonyl)-pyridin-3-yl]-acetamide] | 5.01 |
| Cc1nccn1CC(=O)Nc1cncc(C(=O)c2cn(C(C)C)c3ncncc23)c1 [Example 359, N-[5-(7-Isopropyl-7H-pyrrolo[2,3-d]pyrimidine-5-carbonyl)-pyridin-3-yl]-2-(2-methyl-imidazol-1-yl)-acetamide] | 5.01 |
| CC(C)n1cc(C(=O)c2cncc(NC(=O)Cc3nnc(O)c4ccccc34)c2)c2cncnc21 [Example 361, 2-(4-Hydroxy-phthalazin-1-yl)-N-[5-(7-isopropyl-7H-pyrrolo[2,3-d]pyrimidine-5-carbonyl)-pyridin-3-yl]-acetamide] | 5.12 |
| Cc1sc2nc(CC(=O)Nc3cncc(C(=O)c4cn(C(C)C)c5ncncc45)c3)cn2c1C [Example 362, 2-(2,3-Dimethyl-imidazo[2,1-b]thiazol-6-yl)-N-[5-(7-isopropyl-7H-pyrrolo[2,3-d]pyrimidine-5-carbonyl)-pyridin-3-yl]-acetamide] | 5.72 |
| CC(C)n1cc(C(=O)c2cncc(NC(=O)Cn3cnc(-c4ccc(F)cc4)c3)c2)c2cncnc21 [Example 365, 2-[4-(4-Fluoro-phenyl)-imidazol-1-yl]-N-[5-(7-isopropyl-7H-pyrrolo[2,3-d]pyrimidine-5-carbonyl)-pyridin-3-yl]-acetamide] | 5.69 |
| Cc1cn2cc(CC(=O)Nc3cncc(C(=O)c4cn(C(C)C)c5ncncc45)c3)nc2s1 [Example 368, N-[5-(7-Isopropyl-7H-pyrrolo[2,3-d]pyrimidine-5-carbonyl)-pyridin-3-yl]-2-(2-methyl-imidazo[2,1-b]thiazol-6-yl)-acetamide] | 6.12 |

The remaining compounds from weak to strong by pIC50, led by results:

| pIC50 | SMILES |
| --- | --- |
| 5.25 | CCc1nn2cc(CC(=O)Nc3cncc(C(=O)c4cn(C(C)C)c5ncncc45)c3)nc2s1 [Example 367, 2-(2-Ethyl-imidazo[2,1-b]-1,3,4-thiadiazol-6-yl)-N-[5-(7-isopropyl-7H-pyrrolo[2,3-d]pyrimidine-5-carbonyl)-pyridin-3-yl]-acetamide] |
| 5.30 | Cc1cccc(-c2nnnn2CC(=O)Nc2cncc(C(=O)c3cn(C(C)C)c4ncncc34)c2)c1 [Example 364, N-[5-(7-Isopropyl-7H-pyrrolo[2,3-d]pyrimidine-5-carbonyl)-pyridin-3-yl]-2-(5-m-tolyl-tetrazol-1-yl)-acetamide] |
| 5.99 | CC(C)n1cc(C(=O)c2cncc(NC(=O)Cn3cc(C4(O)CCCC4)nn3)c2)c2cncnc21 [Example 363, 2-[4-(1-Hydroxy-cyclopentyl)-1,2,3-triazol-1-yl]-N-[5-(7-isopropyl-7H-pyrrolo[2,3-d]pyrimidine-5-carbonyl)-pyridin-3-yl]-acetamide] |
| 6.02 | CC(C)n1cc(C(=O)c2cncc(NC(=O)Cc3cn4ccsc4n3)c2)c2cncnc21 [Example 360, 2-Imidazo[2,1-b]thiazol-6-yl-N-[5-(7-isopropyl-7H-pyrrolo[2,3-d]pyrimidine-5-carbonyl)-pyridin-3-yl]-acetamide] |
| 6.44 | CC(C)n1cc(C(=O)c2cncc(NC(=O)c3ccc(C(F)(F)F)cc3)c2)c2cncnc21 [Example 345, N-(5-{[7-(propan-2-yl)-7H-pyrrolo[2,3-d]pyrimidin-5-yl]carbonyl}pyridin-3-yl)-4-(trifluoromethyl)benzamide] |
| 6.45 | CC(C)c1ccnn1CC(=O)Nc1cncc(C(=O)c2cn(C(C)C)c3ncncc23)c1 [Example 366, 2-(5-Isopropyl-pyrazol-1-yl)-N-[5-(7-isopropyl-7H-pyrrolo[2,3-d]pyrimidine-5-carbonyl)-pyridin-3-yl]-acetamide] |
| 6.49 | CC(C)n1cc(C(=O)c2cncc(NC(=O)c3ccc(Cl)cc3)c2)c2cncnc21 [Example 344, 4-chloro-N-(5-{[7-(propan-2-yl)-7H-pyrrolo[2,3-d]pyrimidin-5-yl]carbonyl}pyridin-3-yl)benzamide] |
| 6.60 | CC(C)n1cc(C(=O)c2cncc(NC(=O)c3ccc(OC(F)(F)F)cc3)c2)c2cncnc21 [Example 346, N-(5-{[7-(propan-2-yl)-7H-pyrrolo[2,3-d]pyrimidin-5-yl]carbonyl}pyridin-3-yl)-4-(trifluoromethoxy)benzamide] |
| 6.81 | CC(C)n1cc(C(=O)c2cncc(NC(=O)COc3ccccc3C#N)c2)c2cncnc21 [Example 347, 2-(2-cyanophenoxy)-N-(5-{[7-(propan-2-yl)-7H-pyrrolo[2,3-d]pyrimidin-5-yl]carbonyl}pyridin-3-yl)acetamide] |
| 7.27 | CC(C)n1cc(C(=O)c2cncc(NC(=O)c3cccc(Cl)c3)c2)c2cncnc21 [Example 343, 3-chloro-N-(5-{[7-(propan-2-yl)-7H-pyrrolo[2,3-d]pyrimidin-5-yl]carbonyl}pyridin-3-yl)benzamide] |
| 7.68 | CC(C)(CO)n1cc(C(=O)c2cncc(NC(=O)Cc3ccc(C#N)cn3)c2)c2cnc(N)nc21 [Example 351, N-{5-[2-Amino-7-(2-hydroxy-1,1-dimethyl-ethyl)-7H-pyrrolo[2,3-d]pyrimidine-5-carbonyl]-pyridin-3-yl}-2-(5-cyano-pyridin-2-yl)-acetamide] |

Source: US8846698B2, “Pyrrolo[2,3-d]pyrimidine tropomysin-related kinase inhibitors” (Pfizer Limited, priority 2011, dated 2014)
